Experimental data as given in US8987216B2, “Polysulfated glycosides and salts thereof” (Teva Hungary Pharmaceutical Marketing Private Limited …, priority 2004, dated 2015).
Where a name gives a salt, the structure may show the parent alone. Read-outs that look alike come from different tables or passages of the source.

How the values were obtained:
IP-3 receptor = molecular target: T1, IP-3 receptor (Rattus norvegicus, UniProt P29994); assay: IP-3 receptor antagonistic effect: inhibition of IP3 binding to its receptor in rat cerebellum membrane preparations
T1 construct: determined using rat cerebellum membrane preparations; from tissue; host or cells: rat cerebellum (microsomal membrane preparation)
T1 sequence (P29994 whole entry): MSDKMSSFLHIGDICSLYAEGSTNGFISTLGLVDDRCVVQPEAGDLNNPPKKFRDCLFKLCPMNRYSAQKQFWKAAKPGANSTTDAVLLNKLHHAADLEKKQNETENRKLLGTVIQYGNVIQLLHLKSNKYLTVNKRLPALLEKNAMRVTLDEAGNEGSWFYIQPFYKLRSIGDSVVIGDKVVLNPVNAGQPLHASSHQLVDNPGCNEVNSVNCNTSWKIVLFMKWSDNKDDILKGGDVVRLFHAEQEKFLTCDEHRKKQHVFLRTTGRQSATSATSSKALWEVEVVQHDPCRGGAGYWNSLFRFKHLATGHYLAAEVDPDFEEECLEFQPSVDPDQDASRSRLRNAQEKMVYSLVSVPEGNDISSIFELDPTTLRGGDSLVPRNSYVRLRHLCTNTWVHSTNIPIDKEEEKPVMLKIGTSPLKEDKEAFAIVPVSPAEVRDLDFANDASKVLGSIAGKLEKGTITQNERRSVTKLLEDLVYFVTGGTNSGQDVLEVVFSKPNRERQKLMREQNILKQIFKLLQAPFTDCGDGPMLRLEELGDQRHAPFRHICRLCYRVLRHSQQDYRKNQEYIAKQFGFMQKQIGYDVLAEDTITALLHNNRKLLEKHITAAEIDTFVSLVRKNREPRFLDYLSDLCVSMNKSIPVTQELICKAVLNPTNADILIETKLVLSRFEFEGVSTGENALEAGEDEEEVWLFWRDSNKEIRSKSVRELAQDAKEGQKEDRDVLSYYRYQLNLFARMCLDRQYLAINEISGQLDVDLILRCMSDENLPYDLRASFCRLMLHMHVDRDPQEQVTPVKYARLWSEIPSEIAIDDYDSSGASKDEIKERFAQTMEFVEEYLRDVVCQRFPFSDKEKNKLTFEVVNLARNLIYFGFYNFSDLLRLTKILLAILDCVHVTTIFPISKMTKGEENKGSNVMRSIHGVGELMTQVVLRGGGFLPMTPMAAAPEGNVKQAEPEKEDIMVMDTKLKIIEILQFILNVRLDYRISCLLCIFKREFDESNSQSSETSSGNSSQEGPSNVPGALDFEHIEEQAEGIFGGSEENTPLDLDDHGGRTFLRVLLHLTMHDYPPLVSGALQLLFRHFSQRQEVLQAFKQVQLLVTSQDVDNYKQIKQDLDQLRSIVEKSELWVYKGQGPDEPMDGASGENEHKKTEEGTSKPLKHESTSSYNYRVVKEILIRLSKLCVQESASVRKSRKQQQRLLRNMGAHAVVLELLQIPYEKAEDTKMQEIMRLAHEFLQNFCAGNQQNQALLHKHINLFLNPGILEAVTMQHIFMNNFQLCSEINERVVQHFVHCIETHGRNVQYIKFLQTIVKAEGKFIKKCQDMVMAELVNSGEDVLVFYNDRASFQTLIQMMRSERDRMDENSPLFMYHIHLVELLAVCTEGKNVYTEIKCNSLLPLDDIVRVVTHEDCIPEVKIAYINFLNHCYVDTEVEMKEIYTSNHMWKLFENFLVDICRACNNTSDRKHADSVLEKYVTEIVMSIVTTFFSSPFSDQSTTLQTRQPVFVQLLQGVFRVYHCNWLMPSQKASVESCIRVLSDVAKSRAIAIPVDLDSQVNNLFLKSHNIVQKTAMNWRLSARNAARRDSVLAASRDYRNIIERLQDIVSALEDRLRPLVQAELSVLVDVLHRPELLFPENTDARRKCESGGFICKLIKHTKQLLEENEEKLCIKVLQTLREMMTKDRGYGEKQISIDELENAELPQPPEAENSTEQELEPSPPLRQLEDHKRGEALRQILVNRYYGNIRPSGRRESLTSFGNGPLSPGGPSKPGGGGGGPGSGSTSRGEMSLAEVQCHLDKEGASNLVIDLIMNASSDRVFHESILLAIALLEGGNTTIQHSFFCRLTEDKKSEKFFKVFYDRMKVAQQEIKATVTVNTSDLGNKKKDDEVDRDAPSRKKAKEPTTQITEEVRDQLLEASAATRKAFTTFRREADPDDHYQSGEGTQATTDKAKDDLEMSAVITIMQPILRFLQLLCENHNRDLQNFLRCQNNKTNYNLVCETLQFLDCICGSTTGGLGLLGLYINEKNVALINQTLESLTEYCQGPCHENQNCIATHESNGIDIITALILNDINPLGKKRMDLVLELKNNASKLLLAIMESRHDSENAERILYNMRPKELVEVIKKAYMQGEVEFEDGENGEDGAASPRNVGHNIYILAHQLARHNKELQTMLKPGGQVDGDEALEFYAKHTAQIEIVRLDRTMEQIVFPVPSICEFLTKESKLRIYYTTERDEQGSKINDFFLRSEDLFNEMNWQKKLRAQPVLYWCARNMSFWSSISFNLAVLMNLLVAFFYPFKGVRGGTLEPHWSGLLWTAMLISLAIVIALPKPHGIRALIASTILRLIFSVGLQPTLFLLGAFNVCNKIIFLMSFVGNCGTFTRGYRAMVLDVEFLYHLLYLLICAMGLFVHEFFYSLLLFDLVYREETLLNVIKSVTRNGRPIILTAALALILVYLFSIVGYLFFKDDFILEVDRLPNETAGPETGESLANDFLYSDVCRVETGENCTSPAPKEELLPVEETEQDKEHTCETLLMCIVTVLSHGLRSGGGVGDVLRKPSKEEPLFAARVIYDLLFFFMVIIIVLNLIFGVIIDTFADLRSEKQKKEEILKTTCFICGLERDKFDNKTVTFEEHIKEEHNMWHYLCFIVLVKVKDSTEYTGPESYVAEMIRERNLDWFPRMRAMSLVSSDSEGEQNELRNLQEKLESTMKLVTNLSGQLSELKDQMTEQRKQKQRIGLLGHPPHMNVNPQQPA
Protocol: Glycosides of the present invention, depending on their chemical structure, inhibit the binding of inositol-1,4,5-trisphosphate (IP3) to its receptor in microsomal membrane preparations. As IP3 is a messenger molecule playing distinguished role in the activation of different cells, interfering with this function can explain the anti-asthmatic effect of these polysulfated glycosides.
The IP3 antagonist effect of the polysulfated glycosides were determined using rat cerebellum membrane preparations according to Worley et al. (JBC 262, 12132, 1987).

[1] = read-out: IC 50 (μg/ml) Average ± SEM (n) (converted)

Row | SMILES | melting point | IC50 (IP-3 receptor; read-out: Average IC50) | IC50 (IP-3 receptor; [1])
1 | O=S(=O)(O)OC[C@H](OS(=O)(=O)O)[C@@H](O[C@@H]1O[C@H](COS(=O)(=O)O)[C@@H](OS(=O)(=O)O)[C@H](OS(=O)(=O)O)[C@H]1OS(=O)(=O)O)[C@H](OS(=O)(=O)O)[C@@H](COS(=O)(=O)O)OS(=O)(=O)O (as salt: potassium) [Example 4, 1,2,4,5,6-penta-O-sulfato-3-O-(2,3,4,6-tetra-β-sulfato-β-D-glucopyranosyl)-D-glucitol nona potassium salt] | > 220 °C | – | –
2 | O=S(=O)(O)OC[C@H](OS(=O)(=O)O)[C@@H](OS(=O)(=O)O)[C@H](O[C@H]1O[C@H](COS(=O)(=O)O)[C@@H](OS(=O)(=O)O)[C@H](OS(=O)(=O)O)[C@H]1OS(=O)(=O)O)[C@@H](COS(=O)(=O)O)OS(=O)(=O)O (as salt: potassium) [Example 5, 1,2,3,5,6-penta-O-sulfato-4-O-(2,3,4,6-tetra-O-sulfato-α-D-glucopyranosyl)-D-glucitol nona potassium salt] | > 220 °C | – | –
3 | O=S(=O)(O)OCC(OS(=O)(=O)O)C(OC1OC(COS(=O)(=O)O)C(OS(=O)(=O)O)C(OS(=O)(=O)O)C1OS(=O)(=O)O)C(OS(=O)(=O)O)C(COS(=O)(=O)O)OS(=O)(=O)O (as salt: potassium) [Example 6, 1,2,3,5,6-penta-O-sulfato-4-O-(2,3,4,6-tetra-β-sulfato-β-D-glucopyranosyl)-D-glucitol nona potassium salt] | > 220 °C | – | –
4 | O=S(=O)(O)OC[C@H](OS(=O)(=O)O)[C@@H](OS(=O)(=O)O)[C@H](O[C@@H]1O[C@H](COS(=O)(=O)O)[C@H](OS(=O)(=O)O)[C@H](OS(=O)(=O)O)[C@H]1OS(=O)(=O)O)[C@@H](COS(=O)(=O)O)OS(=O)(=O)O (as salt: potassium) [Example 7, 1,2,3,5,6-penta-O-sulfato-4-O-(2,3,4,6-tetra-O-sulfato-β-D-galactopyranosyl)-D-glucitol nona potassium salt] | > 220 °C | – | –
5 | O=S(=O)(O)OC[C@H]1O[C@@H](OC[C@@H](OS(=O)(=O)O)[C@@H](OS(=O)(=O)O)[C@H](OS(=O)(=O)O)[C@@H](COS(=O)(=O)O)OS(=O)(=O)O)[C@H](OS(=O)(=O)O)[C@@H](OS(=O)(=O)O)[C@@H]1OS(=O)(=O)O [Example 1, 2,3,4,5,6-penta-O-sulfato-1-O-(2,3,4,6-tetra-O-sulfato-β-D-glucopyranosyl)-D-mannitol nona potassium salt] | – | 100 nM | 131 nM
6 | O=S(=O)(O)OC[C@H](OS(=O)(=O)O)[C@@H](OS(=O)(=O)O)[C@H](OS(=O)(=O)O)[C@@H](CO[C@@H]1O[C@H](COS(=O)(=O)O)[C@@H](OS(=O)(=O)O)[C@H](OS(=O)(=O)O)[C@H]1OS(=O)(=O)O)OS(=O)(=O)O [Example 2, 1,2,3,4,5-penta-O-sulfato-6-O-(2,3,4,6-tetra-O-sulfato-β-D-glucopyranosyl)-D-glucitol nona potassium salt] | – | 1410 nM | 1870 nM
7 | O=S(=O)(O)OC[C@H]1O[C@@H](OC[C@H](OS(=O)(=O)O)[C@@H](OS(=O)(=O)O)[C@H](OS(=O)(=O)O)[C@@H](COS(=O)(=O)O)OS(=O)(=O)O)[C@H](OS(=O)(=O)O)[C@@H](OS(=O)(=O)O)[C@@H]1OS(=O)(=O)O [Example 3, 2,3,4,5,6-penta-O-sulfato-1-O-(2,3,4,6-tetra-O-sulfato-β-D-glucopyranosyl)-D-glucitol nona potassium salt] | – | 405 nM | 535 nM
8 | O=S(=O)(O)OC[C@H](OS(=O)(=O)O)[C@@H](OS(=O)(=O)O)[C@H](O[C@H]1O[C@H](COS(=O)(=O)O)[C@@H](OS(=O)(=O)O)[C@H](OS(=O)(=O)O)[C@H]1OS(=O)(=O)O)[C@@H](COS(=O)(=O)O)OS(=O)(=O)O [Example 5, 1,2,3,5,6-penta-O-sulfato-4-O-(2,3,4,6-tetra-O-sulfato-α-D-glucopyranosyl)-D-glucitol nona potassium salt] | – | 263 nM | 347 nM
9 | O=S(=O)(O)OCC(OS(=O)(=O)O)C(OC1OC(COS(=O)(=O)O)C(OS(=O)(=O)O)C(OS(=O)(=O)O)C1OS(=O)(=O)O)C(OS(=O)(=O)O)C(COS(=O)(=O)O)OS(=O)(=O)O [Example 6, 1,2,3,5,6-penta-O-sulfato-4-O-(2,3,4,6-tetra-β-sulfato-β-D-glucopyranosyl)-D-glucitol nona potassium salt] | – | 256 nM | 338 nM
10 | O=S(=O)(O)OC[C@H](OS(=O)(=O)O)[C@@H](OS(=O)(=O)O)[C@H](O[C@@H]1O[C@H](COS(=O)(=O)O)[C@H](OS(=O)(=O)O)[C@H](OS(=O)(=O)O)[C@H]1OS(=O)(=O)O)[C@@H](COS(=O)(=O)O)OS(=O)(=O)O [Example 7, 1,2,3,5,6-penta-O-sulfato-4-O-(2,3,4,6-tetra-O-sulfato-β-D-galactopyranosyl)-D-glucitol nona potassium salt] | – | 256 nM | 338 nM
11 | O=S(=O)(O)OC[C@H]1O[C@@H](OC[C@H](OS(=O)(=O)O)[C@@H](O[C@@H]2O[C@H](COS(=O)(=O)O)[C@@H](OS(=O)(=O)O)[C@H](OS(=O)(=O)O)[C@H]2OS(=O)(=O)O)[C@H](OS(=O)(=O)O)[C@@H](COS(=O)(=O)O)OS(=O)(=O)O)[C@H](OS(=O)(=O)O)[C@@H](OS(=O)(=O)O)[C@@H]1OS(=O)(=O)O [Example 8, 2,4,5,6-tetra-O-sulfato-1,3-bis-O-(2,3,4,6-tetra-O-sulfato-β-D-glucopyranosyl)-D-glucitol dodeca potassium salt] | – | 800 nM | 1050 nM
12 | O=S(=O)(O)OC[C@H]1O[C@@H](OC[C@@H](OS(=O)(=O)O)[C@@H](OS(=O)(=O)O)[C@H](OS(=O)(=O)O)[C@@H](CO[C@@H]2O[C@H](COS(=O)(=O)O)[C@@H](OS(=O)(=O)O)[C@H](OS(=O)(=O)O)[C@H]2OS(=O)(=O)O)OS(=O)(=O)O)[C@H](OS(=O)(=O)O)[C@@H](OS(=O)(=O)O)[C@@H]1OS(=O)(=O)O [Example 9, 2,3,4,5-tetra-O-sulfato-1,6-bis-O-(2,3,4,6-tetra-O-sulfato-β-D-glucopyranosyl)-D-mannitol dodeca potassium salt] | – | 634 nM | 832 nM
13 | O=S(=O)(O)OCC1OC(OCC2OC(OCC(OS(=O)(=O)O)C(OS(=O)(=O)O)C(OS(=O)(=O)O)C(COC3OC(COC4OC(COS(=O)(=O)O)C(OS(=O)(=O)O)C(OS(=O)(=O)O)C4OS(=O)(=O)O)C(OS(=O)(=O)O)C(OS(=O)(=O)O)C3OS(=O)(=O)O)OS(=O)(=O)O)C(OS(=O)(=O)O)C(OS(=O)(=O)O)C2OS(=O)(=O)O)C(OS(=O)(=O)O)C(OS(=O)(=O)O)C1OS(=O)(=O)O [Example 10, 2,3,4,5-tetra-O-sulfato-1,6-bis-O-(2,3,4,2′,3′,4′,6′-hepta-O-sulfato-β-gentiobiopyranosyl)-D-mannitol octadeca potassium salt] | – | 284 nM | 383 nM
14 | CO[C@@H]([C@H](OC)[C@@H](COS(=O)(=O)O)OS(=O)(=O)O)[C@@H](CO[C@@H]1O[C@H](CO[C@@H]2O[C@H](COS(=O)(=O)O)[C@@H](OS(=O)(=O)O)[C@H](OS(=O)(=O)O)[C@H]2OS(=O)(=O)O)[C@@H](OS(=O)(=O)O)[C@H](OS(=O)(=O)O)[C@H]1OS(=O)(=O)O)OS(=O)(=O)O [Example 14, 3,4-di-O-methyl-2,5,6-tri-O-sulfato-1-O-(2,3,4,2′,3′,4′,6′-hepta-O-sulfato-β-gentiobiopyranosyl)-D-mannitol deca potassium salt] | – | 6100 nM | 7830 nM
15 | O=S(=O)(O)OC[C@@H](OS(=O)(=O)O)[C@@H](OS(=O)(=O)O)[C@H](OS(=O)(=O)O)[C@@H](CO[C@H]1OC[C@@H](OS(=O)(=O)O)[C@@H](OS(=O)(=O)O)[C@@H]1OS(=O)(=O)O)OS(=O)(=O)O [Example 16, 2,3,4,5,6-penta-O-sulfato-1-O-(2,3,4-tri-O-sulfato-α-D-arabinopyranosyl)-D-mannitol octa potassium salt] | – | 702 nM | 2020 nM
